This is an account of results in publication PMC7956587, “Molecular Docking Studies and Biological Evaluation of Berberine–Benzothiazole Derivatives as an Anti-Influenza Agent via Blocking of Neuraminidase” (International Journal of Molecular Sciences, 2021).

Where two headings read alike, the source gives them in different places.

Data set [1] deals with influenza A virus A/Vic/3/75 (H3N2). Kind of data set: In vitro antiviral bioassay (CPE reduction, SRB) in MDCK cells. The conditions noted are these: for IC50: Influenza A virus, H3N2, MDCK, 48 h; for TI A/VIC/3/75 (H3N2): Therapeutic index, TI = CC50/IC50. The format is cell-based.
The subject of another data set is MDCK cells. To be noted: dog, 48 h.
In data set [2] the test system is influenza A virus A/PR/8/34 (H1N1). Kind of data set: In vitro antiviral bioassay (CPE reduction, SRB) in MDCK cells. The conditions noted are these: for IC50: Influenza A virus, MDCK, 48 h; for TI A/PR/8/34 (H1N1): Therapeutic index, TI = CC50/IC50. In kind it is cell-based.
For data set [3], the system named is influenza B virus B/Lee/40. Described as above. The format is cell-based. To be noted: for IC50: Influenza B virus; for TI B/LEE/40: Therapeutic index, TI = CC50/IC50.
Another data set in a line: in vitro. To be noted: dog.
The test system of data set [4] is influenza B virus B/Maryland/1/59. Kind of data set: In vitro antiviral bioassay (CPE reduction, SRB) in MDCK cells. In kind it is cell-based. The conditions noted are these: for IC50: Influenza B virus, read-out: IC50 B/MARYLAND/1/59; for TI B/MARYLAND/1/59: Therapeutic index, TI = CC50/IC50.
Data set [5] addresses influenza virus neuraminidase (Influenza A virus, UniProt P03468). As to the kind of experiment: Viral neuraminidase inhibition assay (NA-Star kit). The format is biochemical, influenza A/PR/8/34 virus. To be noted: for NA inhibition activity (in words): compared with oseltamivir, Figure 1.
Data set [6] in a line: Cytotoxicity on MDCK cells, SRB method. To be noted: dog. In general terms: In SRB staining, fixed cells bind dye roughly in proportion to their protein.
The mark [7] stands for this setting: MDCK cells, 50 TCID50, 48 h, mean ± S.D., triplicate.

Sequence of influenza virus neuraminidase (P03468 whole entry, looked up): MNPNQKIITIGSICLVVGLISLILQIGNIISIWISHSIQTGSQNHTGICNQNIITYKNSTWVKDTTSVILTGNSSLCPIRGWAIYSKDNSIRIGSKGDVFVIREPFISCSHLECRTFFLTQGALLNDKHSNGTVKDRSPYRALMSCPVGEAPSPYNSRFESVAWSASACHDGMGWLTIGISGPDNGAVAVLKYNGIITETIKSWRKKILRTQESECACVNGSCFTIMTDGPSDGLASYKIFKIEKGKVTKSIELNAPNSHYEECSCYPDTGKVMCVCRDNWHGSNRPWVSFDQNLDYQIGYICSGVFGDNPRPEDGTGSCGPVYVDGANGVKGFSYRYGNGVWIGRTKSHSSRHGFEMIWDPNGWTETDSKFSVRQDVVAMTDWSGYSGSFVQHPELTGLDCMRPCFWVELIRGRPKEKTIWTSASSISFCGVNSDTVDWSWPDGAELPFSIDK

For `COc1ccc2cc3[n+](cc2c1OCCCCCNc1nc2ccc(Br)cc2s1)CCc1cc2c(cc1-3)OCO2` [BBD 8], the IC50 in data set [1] was found to be 70.7 ± 0.94 µg/mL; in data set [2], 68.02 ± 0.67 µg/mL; in data set [3] (setting [7]) it was 74.8 ± 1.83 µg/mL; in data set [4] (setting [7]), 81.2 ± 0.91 µg/mL. The “TI A/VIC/3/75 (H3N2)” value in data set [1] is given as 4.65. Moreover, the CC50 with MDCK cells came to 328.9 ± 1.065 µg/mL. For the same molecule, the “TI A/PR/8/34 (H1N1)” value in data set [2] was found to be 4.835. Further, the “TI B/LEE/40” value in data set [3] was 4.395. For the same molecule, the CC50 at 48 h in “in vitro” was > 100 µg/mL. Besides, in data set [4], the “TI B/MARYLAND/1/59” value amounted to 4.052.

In the case of `COc1ccc2cc3[n+](cc2c1OCCCCCNc1nc2ccc(I)cc2s1)CCc1cc2c(cc1-3)OCO2` [BBD 9], the IC50 is 54.2 ± 2.09 µg/mL in data set [1], 54.5 ± 1.75 µg/mL in data set [2], 69.8 ± 2.57 µg/mL in data set [3] (setting [7]) and 78.5 ± 2.31 µg/mL in data set [4] (setting [7]). The “TI A/VIC/3/75 (H3N2)” value in data set [1] is 5.585. Also, the CC50 in the data set with MDCK cells is given as 302.5 ± 1.771 µg/mL. Besides, in data set [2], the “TI A/PR/8/34 (H1N1)” value came to 5.547. For the same molecule, the “TI B/LEE/40” value in data set [3] was 4.331. In addition, in the data set “in vitro”, the CC50 at 48 h was > 100 µg/mL. For the same molecule, the “TI B/MARYLAND/1/59” value in data set [4] was determined as 3.851.

On to `COc1ccc2nc(NCCCCCOc3c(OC)ccc4cc5[n+](cc34)CCc3cc4c(cc3-5)OCO4)sc2c1` [BBD 5], for which the IC50 in data set [1] is 57.3 ± 2.13 µg/mL; in data set [2] it was 39.54 ± 0.326 µg/mL; in data set [3] (setting [7]), 36.9 ± 1.52 µg/mL; in data set [4] (setting [7]), 44.3 ± 2.06 µg/mL. In addition, the “TI A/VIC/3/75 (H3N2)” value in data set [1] is recorded as 5.343. The molecule also registered a CC50 with MDCK cells of 306.4 ± 3.612 µg/mL. Further, the “NA inhibition activity (in words)” value in data set [5] is “moderate NA inhibition activity”. Moreover, in data set [2], the “TI A/PR/8/34 (H1N1)” value turned out to be 7.749. Further, in data set [3], the “TI B/LEE/40” value amounted to 8.294. Besides, in “in vitro”, the CC50 at 48 h is > 100 µg/mL. Besides, in data set [4], the “TI B/MARYLAND/1/59” value amounted to 6.921.

For the molecule `COc1ccc2cc3[n+](cc2c1OCCCCCNc1nc2ccc(C)cc2s1)CCc1cc2c(cc1-3)OCO2` [BBD 4], the IC50 in data set [1] is 55 ± 0.87 µg/mL; in data set [2] it was 37.3 ± 0.669 µg/mL; in data set [3] (setting [7]), 43.2 ± 0.86 µg/mL; in data set [4] (setting [7]), 41.6 ± 0.67 µg/mL. The “TI A/VIC/3/75 (H3N2)” value in data set [1] worked out at 5.862. Besides, the CC50 in the data set on MDCK cells worked out at 322.6 ± 2.543 µg/mL. Further, the “NA inhibition activity (in words)” value in data set [5] is “moderate NA inhibition activity”. In addition, the “TI A/PR/8/34 (H1N1)” value in data set [2] is listed as 8.655. For the same molecule, the “TI B/LEE/40” value in data set [3] is given as 7.406. In the data set “in vitro”, the CC50 at 48 h was > 100 µg/mL. The “TI B/MARYLAND/1/59” value in data set [4] was 7.762.

As to `COc1ccc2cc3[n+](cc2c1OCCCCCNc1nc2ccc(C#N)cc2s1)CCc1cc2c(cc1-3)OCO2` [BBD 13], in data set [1], the “IC50 A/VIC/3/75 (H3N2)” value is recorded as “did not show any activity”. In addition, the “IC50 A/PR/8/34 (H1N1)” value in data set [2] is “did not show any activity”. Further, the “IC50 B/LEE/40” value in data set [3] (setting [7]) was “did not show any activity”. Further, the CC50 at 48 h in “in vitro” worked out at 45.1 ± 0.864 µg/mL. For the same molecule, the “IC50 B/MARYLAND/1/59” value in data set [4] (setting [7]) is reported as “did not show any activity”.

Take `CCOC(=O)C1=C[C@@H](OC(CC)CC)[C@H](NC(C)=O)[C@@H](N)C1` [OSELTAMIVIR, Oseltamivir phosphate, reference compound]: the IC50 came to 22.1 ± 1.07 µg/mL in data set [1]; 11.6 ± 1.43 µg/mL in data set [2]; 55.9 ± 1.13 µg/mL in data set [3] (setting [7]); 44.2 ± 1.83 µg/mL in data set [4] (MDCK, 48 h). Moreover, the “TI A/VIC/3/75 (H3N2)” value in data set [1] came to 9.27. Besides, the CC50 at 48 h in data set [6] is > 100 µg/mL. Moreover, the activity at 0.1 µg/mL in data set [5] (at 0.1 μg/mL, (Treatment/Virus) × 100, remaining activity) was determined as 39.1%. In data set [5] (at 1 μg/mL, (Treatment/Virus) × 100, remaining activity), this molecule had an activity at 1 µg/mL of 29.1%. For the same molecule, the activity at 10 µg/mL in data set [5] (at 10 μg/mL, (Treatment/Virus) × 100, remaining activity) was determined as 18.3%. In addition, the “TI A/PR/8/34 (H1N1)” value in data set [2] is 17.75. Also, the “TI B/LEE/40” value in data set [3] is 3.67. For the same molecule, the “TI B/MARYLAND/1/59” value in data set [4] is 4.64.

`COc1ccc2cc3[n+](cc2c1OCCCCCNc1nc2ccc([N+](=O)[O-])cc2s1)CCc1cc2c(cc1-3)OCO2` [BBD 2]: the IC50 was determined as 52.2 ± 2.07 µg/mL in data set [1], 30.9 ± 0.619 µg/mL in data set [2], 61.7 ± 1.65 µg/mL in data set [3] (setting [7]) and 65.3 ± 1.88 µg/mL in data set [4] (setting [7]). Also, the “TI A/VIC/3/75 (H3N2)” value in data set [1] is 6.525. Moreover, the CC50 in the data set on MDCK cells stood at 340.5 ± 1.180 µg/mL. Also, in data set [2], the “TI A/PR/8/34 (H1N1)” value stood at 11.01. In addition, in data set [3], the “TI B/LEE/40” value was 5.516. Moreover, the CC50 at 48 h in “in vitro” is > 100 µg/mL. Also, in data set [4], the “TI B/MARYLAND/1/59” value was determined as 5.212.

Regarding `COc1ccc2cc3[n+](cc2c1OCCCCCNNc1nc2ccccc2s1)CCc1cc2c(cc1-3)OCO2` [BBD 14], the IC50 in data set [1] came out at 56.3 ± 2.06 µg/mL; in data set [2] it was 40.3 ± 0.725 µg/mL; in data set [3] (setting [7]), 70.3 ± 2.24 µg/mL; in data set [4] (setting [7]), 73.4 ± 2.17 µg/mL. In data set [1], the “TI A/VIC/3/75 (H3N2)” value came out at 5.403. Also, the CC50 in the data set on MDCK cells was found to be 304.3 ± 1.261 µg/mL. Moreover, the “TI A/PR/8/34 (H1N1)” value in data set [2] was determined as 7.543. Besides, in data set [3], the “TI B/LEE/40” value was found to be 4.327. In “in vitro”, the CC50 at 48 h was > 100 µg/mL. Moreover, the “TI B/MARYLAND/1/59” value in data set [4] is given as 4.143.
